{
  "source": "patent US8895761B2",
  "about": "“4-phenylpyrane-3,5-diones, 4-phenylthiopyrane-3,5-diones and 2-phenylcyclohexane-1,3,5-triones as herbicides” (Syngenta Limited, priority 2007, dated 2014)",
  "type_in_all_cases": "in vivo",
  "key": {"[1]": {"test_system": "Echinochloa crus-galli (ECHCG)", "assay": "Pre-emergence herbicidal glasshouse test, Echinochloa crus-galli", "details": "Echinochloa crus-galli, 312 h, rate 250 g/ha, evaluated after 13 days, scale 100 = total damage to plant, 0 = no damage", "in_short": "(§1)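 Visual damage scores (0 = undamaged, top = plant totally killed) were taken 13 days after spraying. Treatment was given one day after sowing or at day 8 of cultivation, under 24/16° C. glasshouse conditions.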"}, "[2]": {"test_system": "Echinochloa crus-galli (ECHCG)", "assay": "Post-emergence herbicidal glasshouse test, Echinochloa crus-galli", "details": "Echinochloa crus-galli, 312 h, rate 250 g/ha, evaluated after 13 days, scale 100 = total damage to plant, 0 = no damage", "in_short": "as §1"}, "[3]": {"test_system": "Alopecurus myosuroides (ALOMY)", "assay": "Post-emergence herbicidal glasshouse test, Alopecurus myosuroides", "details": "Alopecurus myosuroides, 312 h, rate 250 g/ha, evaluated after 13 days, scale 100 = total damage to plant, 0 = no damage", "in_short": "as §1"}, "Avena fatua (AVEFA) [4]": {"test_system": "Avena fatua (AVEFA)", "assay": "Pre-emergence herbicidal glasshouse test, Avena fatua", "details": "Avena fatua, 312 h, rate 250 g/ha, evaluated after 13 days, scale 100 = total damage to plant, 0 = no damage", "in_short": "as §1"}, "Avena fatua (AVEFA) [5]": {"test_system": "Avena fatua (AVEFA)", "assay": "Post-emergence herbicidal glasshouse test, Avena fatua", "details": "Avena fatua, 312 h, rate 250 g/ha, evaluated after 13 days, scale 100 = total damage to plant, 0 = no damage", "in_short": "as §1"}, "Setaria faberi (SETFA) [6]": {"test_system": "Setaria faberi (SETFA)", "assay": "Pre-emergence herbicidal glasshouse test, Setaria faberi", "details": "Setaria faberi, 312 h, rate 250 g/ha, evaluated after 13 days, scale 100 = total damage to plant, 0 = no damage", "protocol": "(§2) Seeds of a variety of test species were sown in standard soil in pots. After cultivation for one day (pre-emergence) or after 8 days cultivation (post-emergence) under controlled conditions in a glasshouse (at 24/16° C., day/night; 14 hours light; 65% humidity), the plants were sprayed with an aqueous spray solution derived from the formulation of the technical active ingredient in acetone/water (50:50) solution containing 0.5% Tween 20 (polyoxyethelyene sorbitan monolaurate, CAS RN 9005-64-5). The test plants were then grown in a glasshouse under controlled conditions in a glasshouse (at 24/16° C., day/night; 14 hours light; 65% humidity) and watered twice daily. After 13 days for pre and post-emergence, the test was evaluated ([…] to plant; 0=no damage to plant).\n(§3) Setaria faberi (SETFA), Lolium perenne (LOLPE), Alopecurus myosuroides (ALOMY), Echinochloa crus-galli (ECHCG) and Avena fatua (AVEFA)."}, "Setaria faberi (SETFA) [7]": {"test_system": "Setaria faberi (SETFA)", "assay": "Post-emergence herbicidal glasshouse test, Setaria faberi", "details": "Setaria faberi, 312 h, rate 250 g/ha, evaluated after 13 days, scale 100 = total damage to plant, 0 = no damage", "protocol": "as §2, §3"}, "[8]": {"test_system": "Alopecurus myosuroides (ALOMY)", "assay": "Pre-emergence herbicidal glasshouse test, Alopecurus myosuroides", "details": "Alopecurus myosuroides, 312 h, rate 250 g/ha, evaluated after 13 days, scale 100 = total damage to plant, 0 = no damage", "in_short": "as §1"}},
  "data": [
    {"smiles": "CCc1cc(-c2ccc(Cl)cc2)ccc1C1=C(O)[C@@]2(C)C=C[C@H](O2)C1=O", "note": "[Compound A-7]", "values": [
      {"measurement": "pest or weed control at 250 g/ha", "setting": "[1]", "value": 0, "unit": "%"},
      {"measurement": "pest or weed control at 250 g/ha", "setting": "[2]", "value": 100, "unit": "%"},
      {"measurement": "pest or weed control at 250 g/ha", "setting": "[3]", "value": 60, "unit": "%"},
      {"measurement": "pest or weed control at 250 g/ha", "setting": "Avena fatua (AVEFA) [4]", "value": 0, "unit": "%"},
      {"measurement": "pest or weed control at 250 g/ha", "setting": "Avena fatua (AVEFA) [5]", "value": 30, "unit": "%"},
      {"measurement": "pest or weed control at 250 g/ha", "setting": "Setaria faberi (SETFA) [6]", "value": 0, "unit": "%"},
      {"measurement": "pest or weed control at 250 g/ha", "setting": "Setaria faberi (SETFA) [7]", "value": 100, "unit": "%"},
      {"measurement": "pest or weed control at 250 g/ha", "setting": "[8]", "value": 0, "unit": "%"}
    ]},
    {"smiles": "CCOC[C@]12CC[C@H](O1)C(=O)C(c1ccc(-c3ccc(Cl)cc3)cc1CC)=C2O", "note": "[Compound A-33]", "values": [
      {"measurement": "pest or weed control at 250 g/ha", "setting": "[1]", "value": 60, "unit": "%"},
      {"measurement": "pest or weed control at 250 g/ha", "setting": "[2]", "value": 100, "unit": "%"},
      {"measurement": "pest or weed control at 250 g/ha", "setting": "[3]", "value": 90, "unit": "%"},
      {"measurement": "pest or weed control at 250 g/ha", "setting": "Avena fatua (AVEFA) [4]", "value": 40, "unit": "%"},
      {"measurement": "pest or weed control at 250 g/ha", "setting": "Avena fatua (AVEFA) [5]", "value": 80, "unit": "%"},
      {"measurement": "pest or weed control at 250 g/ha", "setting": "Setaria faberi (SETFA) [6]", "value": 30, "unit": "%"},
      {"measurement": "pest or weed control at 250 g/ha", "setting": "Setaria faberi (SETFA) [7]", "value": 100, "unit": "%"},
      {"measurement": "pest or weed control at 250 g/ha", "setting": "[8]", "value": 20, "unit": "%"}
    ]},
    {"smiles": "Cc1cc(-c2ccccc2)cc(C)c1C1=C(O)C(C)(C)OC(C)(C)C1=O", "note": "[Compound A-1]", "values": [
      {"measurement": "pest or weed control at 250 g/ha", "setting": "[1]", "value": 70, "unit": "%"},
      {"measurement": "pest or weed control at 250 g/ha", "setting": "[2]", "value": 100, "unit": "%"},
      {"measurement": "pest or weed control at 250 g/ha", "setting": "[3]", "value": 50, "unit": "%"},
      {"measurement": "pest or weed control at 250 g/ha", "setting": "Avena fatua (AVEFA) [4]", "value": 40, "unit": "%"},
      {"measurement": "pest or weed control at 250 g/ha", "setting": "Avena fatua (AVEFA) [5]", "value": 0, "unit": "%"},
      {"measurement": "pest or weed control at 250 g/ha", "setting": "Setaria faberi (SETFA) [6]", "value": 90, "unit": "%"},
      {"measurement": "pest or weed control at 250 g/ha", "setting": "Setaria faberi (SETFA) [7]", "value": 80, "unit": "%"},
      {"measurement": "pest or weed control at 250 g/ha", "setting": "[8]", "value": 30, "unit": "%"}
    ]},
    {"smiles": "CCc1cc(-c2ccc(Cl)c(F)c2F)ccc1C1=C(O)[C@@]2(C)CC[C@H](O2)C1=O", "note": "(racemic) [Compound A-30]", "values": [
      {"measurement": "pest or weed control at 250 g/ha", "setting": "[1]", "value": 0, "unit": "%"},
      {"measurement": "pest or weed control at 250 g/ha", "setting": "[2]", "value": 50, "unit": "%"},
      {"measurement": "pest or weed control at 250 g/ha", "setting": "[3]", "value": 30, "unit": "%"},
      {"measurement": "pest or weed control at 250 g/ha", "setting": "Avena fatua (AVEFA) [4]", "value": 0, "unit": "%"},
      {"measurement": "pest or weed control at 250 g/ha", "setting": "Avena fatua (AVEFA) [5]", "value": 0, "unit": "%"},
      {"measurement": "pest or weed control at 250 g/ha", "setting": "Setaria faberi (SETFA) [6]", "value": 0, "unit": "%"},
      {"measurement": "pest or weed control at 250 g/ha", "setting": "Setaria faberi (SETFA) [7]", "value": 90, "unit": "%"},
      {"measurement": "pest or weed control at 250 g/ha", "setting": "[8]", "value": 0, "unit": "%"}
    ]}
  ]
}
